± gives the expanded uncertainty stated by the source.
Experiment: Molar enthalpy of transition or fusion
Details: Crystal; DSC

O.O.O.O.O.O.[Br-].[Br-].[Ca+2] [calcium bromide hexahydrate]
Molar enthalpy of transition or fusion: 10.5 ± 0.22 kcal/mol
